Values quoted from earlier work in patent US20220184007A1, “FORMULATIONS” (Synchroneuron Inc., priority 2019, published 2022).

How the values were obtained:
[1] = tested on: psychogenic nonepileptic seizures; details: flexible-dose, open-label, uncontrolled study
[2] = tested on: psychogenic nonepileptic seizures; details: flexible-dose, 12 weeks, 33 subjects, statistically underpowered

Compound	event reduction [1]	biweekly event frequency change [2]
COc1ccc(C(CN(C)C)C2(O)CCCCC2)cc1 (centres unmarked) [venlafaxine]	significant event reduction	
CN[C@H]1CC[C@@H](c2ccc(Cl)c(Cl)c2)c2ccccc21 [sertraline]		no difference between groups
